Earlier results on three compounds are cited in US20090011014A1, “Tablet Formulation for Sustained Drug-Release” (UNIVERSITE DE MONTREAL, priority 2004, published 2009).

For data set [1] the following is noted: 400-mg substituted amylose tablet containing 10% of drug; example 5 and FIG. 16 of U.S. Pat. No. 5,879,707.

Where a name gives a salt, the structure may show the parent alone. Read-outs that look alike come from different tables or passages of the source.

In the case of `CC(=O)Nc1ccc(O)cc1` [Acetaminophen], the “Influence of pH on solubility” value (physiological conditions) is reported as “not influenced by pH”.

As for `O=C([O-])c1ccccc1O.[Na+]` [Sodium salicylate], the “Solubility, U.S.P. XXIII descriptive term” value was “freely soluble”. For the same compound, in data set [1], the “Time for release of 95% of the drug” value is 6.5 h.

With `CC(NC(C)(C)C)C(=O)c1cccc(Cl)c1` (stereo not shown) [bupropion hydrochloride], the “Solubility, U.S.P. XXIII descriptive term” value (hydrochloride) was “freely soluble”.
